# Patent US20230330093A1, “APPLICATION OF NITROGEN-CONTAINING SATURATED HETEROCYCLIC COMPOUND” (SHANGHAI PHARMACEUTICALS HOLDING CO., LTD., priority 2020, published 2023)
# Values joined by “and” are separate entries in the source; they are usually repeats but may differ in a detail not shown here. Equal values may be shown once. “Also recorded” adds a separate entry of the source.
# Assays:
# [1] = test system: rhesus monkeys with spontaneous chronic kidney disease; assay: Effect on blood pressure (SBP, DBP, MBP, HR) after anesthesia, 8-week administration; format: in vivo, Macaca mulatta (Rhesus Macaque); details: for SBP: single animals and Mean ± SD
# From the text: (§1) In the trial, animals were brought in three stages.
# Route of administration: Oral administration.
# After anesthesia, the animal was placed in a supine position. The left upper arm was shaved clean, and a suitable size cuff was tied according to the standard. The blood oxygen probe was clamped on the animal's finger or toe (except for the left hand), and the red light-sensitive surface was on the side of the finger pad. The blood pressure of the animal was continuously measured for 3 times in the automatic mode with an interval of 1 min. If the difference of DBP, SBP and MBP of blood pressure measured more than three times was not significant (the difference between the highest value and the lowest value was less than 15 mmHg), the measurement was completed.
# Testing equipment: GE B40i electrophysiological monitor.
# See Table 16 for the effects of administration of each administration group on blood pressure. The blood pressure test of primates required anesthesia, so it was necessary to control the variability of heart rate at various time points to make statistics.
# [2] = test system: rhesus monkeys with spontaneous chronic kidney disease; assay: Effect on heart function, cardiac Doppler ultrasound, 8-week administration
# Experimental: as §1
# This was performed once before administration and once after administration. UACR=MALB/Cr—U. • Blood pressure: the blood pressure was checked after anesthesia, including systolic blood pressure (SBP), diastolic blood pressure (DBP), mean blood pressure (MBP) and heart rate (HR). This was performed once before administration and once at weeks 4 and 8 respectively after administration. • Cardiac GE Doppler ultrasound: historical cardiac ultrasonography once within 1 year (selected animals), once before administration (within 30 days (D-30) of the baseline period), and once at week 8 after administration.
# Anesthesia method: 15 mg/kg of ketamine hydrochloride was used for intramuscular injection anesthesia. According to the animal anesthesia state, the supplemental anesthesia will be performed after judgment by veterinarian. Each supplemental anesthesia dose was ½ of the initial dose.
# Detection method: The animal was placed in the left decubitus position, and the 6S-RS probe (frequency 2.7-8.0 MHz) was used for image acquisition.
# Analysis method: After the image was collected and saved, the supporting analysis workstation EchoPAC Software was used to repeatedly detect various indicators of systolic and diastolic functions in 3 consecutive cardiac cycles.
# Testing indicators and ultrasonic technology: see Table 9 below.
# Testing equipment: GE Vivid S5 color Doppler ultrasound diagnostic system.
# [3] = test system: rhesus monkeys with spontaneous chronic kidney disease; assay: Effect on cystatin C (CysC), 8-week administration; format: in vivo, Macaca mulatta (Rhesus Macaque)
# Experimental: In the trial, animals were brought in three stages. […] Glomerular filtration rate […]: creatinine (Cr-P), urea nitrogen (BUN) and cystatin (CysC) were detected, and the eGFR value was obtained by calculation. It was performed once before the administration and once every two weeks after the administration. […] ELISA kit was used for NT-proBNP test. [table]
# [4] = 5 mg/kg qd (n = 6), Baseline, mean
# [5] = 5 mg/kg qd (n=6), after W8 administration, p<0.01 vs placebo
# [6] = 1 mg/kg (n = 5), Baseline, single animals and Mean ± SD
# [7] = 2 mg/kg (n = 5), Baseline, single animals and Mean ± SD
# [8] = 5 mg/kg (n = 6), Baseline, single animals and Mean ± SD
smiles,measurement,setting,value
COC(=O)NCCCn1nc([C@@H](C)N(C(=O)[C@H]2CNCCO2)C2CC2)c2ccc(C)nc21.O=C(O)C[C@H](O)C(=O)O [malate of compound of Formula I],DBP,[1]; [4],80 ± 17 mmHg
same,SBP,"[1]; 5 mg/kg qd (n = 6), Baseline",132 mmHg and 159 mmHg and 127 mmHg and 180 mmHg and 154 mmHg and 149 mmHg
same,SBP,[1]; [4],150 ± 19 mmHg
same,"DBP reduced by on average, compared with the baseline",[1]; [5],10±7 mmHg
same,"SBP reduced by on average, compared with the baseline",[1]; [5],21±8 mmHg
same,activity of lowering blood pressure,[1]; 1-5 mg/kg qd for 8 weeks,showed the activity of lowering the blood pressure; also recorded: the activity of lowering blood pressure was shown
same,E/Ea,"[2]; 1 mg/kg (n = 5), 8 weeks",10.68 and 11.36 and 8.16 and 8.95 and 10.64
same,Ea,"[2]; 1 mg/kg (n = 5), 8 weeks",5.35 cm/s and 5.65 cm/s and 6.99 cm/s and 5.37 cm/s and 5.06 cm/s
same,LVEF,"[2]; 1 mg/kg (n = 5), 8 weeks",63.95% and 55.81% and 54.03% and 61.01% and 49.37%
same,E/Ea,"[2]; 1 mg/kg (n = 5), Baseline",10.50 and 9.53 and 9.22 and 8.68 and 10.36
same,Ea,"[2]; 1 mg/kg (n = 5), Baseline",5.90 cm/s and 6.31 cm/s and 4.81 cm/s and 5.18 cm/s and 6.37 cm/s
same,LVEF,[2]; [6],65.25% and 55.89% and 54.86% and 69.87% and 47.92%
same,E/Ea,"[2]; 2 mg/kg (n = 5), 8 weeks",10.63 and 6.35 and 7.84 and 9.88 and 6.22
same,Ea,"[2]; 2 mg/kg (n = 5), 8 weeks",5.00 cm/s and 6.66 cm/s and 8.01 cm/s and 5.91 cm/s and 6.82 cm/s
same,LVEF,"[2]; 2 mg/kg (n = 5), 8 weeks",58.54% and 67.80% and 57.13% and 58.03% and 62.85%
same,LVEF,[2]; [7],54.41% and 70.41% and 57.45% and 57.90% and 62.76%
same,E/Ea,"[2]; 5 mg/kg (n = 6), 8 weeks",7.38 and 9.25 and 8.22 and 6.12 and 11.07
same,Ea,"[2]; 5 mg/kg (n = 6), 8 weeks",8.53 cm/s and 8.26 cm/s and 6.47 cm/s and 8.40 cm/s and 6.62 cm/s
same,LVEF,"[2]; 5 mg/kg (n = 6), 8 weeks",62.99% and 45.89% and 73.88% and 54.16% and 55.90%
same,LVEF,[2]; [8],63.71% and 42.11% and 71.95% and 49.98% and 59.46%
same,LVEF % compared with the baseline,"[2]; 5 mg/kg, 8-week administration, 2 animals (No. 5073 and No. 287) with low ejection fraction",increased LVEF %
same,adverse reaction in the systolic and diastolic function (echocardiography),"[2]; rhesus monkey, in vivo",no obvious adverse reaction
same,CysC,"[3]; 1 mg/kg (n = 5), 2 weeks",1.66 mg/L and 1.64 mg/L and 1.83 mg/L and 1.55 mg/L
same,CysC,"[3]; 1 mg/kg (n = 5), 2 weeks, mean",1.70 ± 0.12 mg/L
same,CysC,"[3]; 1 mg/kg (n = 5), 4 weeks",1.49 mg/L and 1.43 mg/L and 1.57 mg/L and 1.76 mg/L and 1.50 mg/L
same,CysC,"[3]; 1 mg/kg (n = 5), 4 weeks, mean",1.55 ± 0.13 mg/L
same,CysC,"[3]; 1 mg/kg (n = 5), 6 weeks",1.48 mg/L and 1.61 mg/L and 1.62 mg/L and 1.68 mg/L and 1.50 mg/L
same,CysC,"[3]; 1 mg/kg (n = 5), 6 weeks, mean",1.58 ± 0.08 mg/L
same,CysC,"[3]; 1 mg/kg (n = 5), 8 weeks",1.51 mg/L and 1.59 mg/L and 1.62 mg/L and 1.77 mg/L
same,CysC,"[3]; 1 mg/kg (n = 5), 8 weeks, mean",1.60 ± 0.11 mg/L
same,CysC,[3]; [6],1.67 mg/L and 1.80 mg/L and 1.72 mg/L and 1.84 mg/L and 1.75 mg/L
same,CysC,"[3]; 1 mg/kg (n = 5), Baseline, single animals and Mean ± SD, mean",1.76 ± 0.07 mg/L
same,CysC,"[3]; 2 mg/kg (n = 5), 2 weeks",1.44 mg/L and 1.97 mg/L and 1.71 mg/L and 1.73 mg/L and 1.51 mg/L
same,CysC,"[3]; 2 mg/kg (n = 5), 2 weeks, mean",1.67 ± 0.21 mg/L
same,CysC,"[3]; 2 mg/kg (n = 5), 4 weeks",1.31 mg/L and 1.77 mg/L and 1.56 mg/L and 1.43 mg/L and 1.47 mg/L
same,CysC,"[3]; 2 mg/kg (n = 5), 4 weeks, mean",1.51 ± 0.17 mg/L
same,CysC,"[3]; 2 mg/kg (n = 5), 6 weeks",1.39 mg/L and 1.76 mg/L and 1.65 mg/L and 1.54 mg/L and 1.42 mg/L
same,CysC,"[3]; 2 mg/kg (n = 5), 6 weeks, mean",1.55 ± 0.16 mg/L
same,CysC,"[3]; 2 mg/kg (n = 5), 8 weeks",1.36 mg/L and 1.68 mg/L and 1.58 mg/L and 1.55 mg/L and 1.47 mg/L
same,CysC,"[3]; 2 mg/kg (n = 5), 8 weeks, mean",1.53 ± 0.12 mg/L
same,CysC,[3]; [7],1.57 mg/L and 1.87 mg/L and 1.72 mg/L and 1.69 mg/L and 1.56 mg/L
same,CysC,"[3]; 2 mg/kg (n = 5), Baseline, single animals and Mean ± SD, mean",1.68 ± 0.13 mg/L
same,CysC,"[3]; 5 mg/kg (n = 6), 2 weeks",1.63 mg/L and 1.45 mg/L and 2.63 mg/L and 1.46 mg/L and 1.64 mg/L
same,CysC,"[3]; 5 mg/kg (n = 6), 2 weeks, mean",1.74 ± 0.44 mg/L
same,CysC,"[3]; 5 mg/kg (n = 6), 4 weeks",1.68 mg/L and 1.73 mg/L and 1.64 mg/L and 2.41 mg/L and 1.36 mg/L and 1.44 mg/L
same,CysC,"[3]; 5 mg/kg (n = 6), 4 weeks, mean",1.71 ± 0.37 mg/L
same,CysC,"[3]; 5 mg/kg (n = 6), 6 weeks",1.59 mg/L and 1.47 mg/L and 1.80 mg/L and 2.45 mg/L and 1.40 mg/L and 1.46 mg/L
same,CysC,"[3]; 5 mg/kg (n = 6), 6 weeks, mean",1.70 ± 0.40 mg/L
same,CysC,"[3]; 5 mg/kg (n = 6), 8 weeks",1.46 mg/L and 1.69 mg/L and 1.66 mg/L and 2.29 mg/L and 1.50 mg/L and 1.39 mg/L
same,CysC,"[3]; 5 mg/kg (n = 6), 8 weeks, mean",1.67 ± 0.33 mg/L
same,CysC,[3]; [8],1.49 mg/L and 1.63 mg/L and 1.61 mg/L and 2.52 mg/L and 1.47 mg/L and 1.55 mg/L
same,CysC,"[3]; 5 mg/kg (n = 6), Baseline, single animals and Mean ± SD, mean",1.71 ± 0.40 mg/L
